Experiments:
Test in all cases: NCI60 antitumor screening
Assay type in all cases: cell-based, human
[1] = system: MCF7; conditions: Homo sapiens; 10 μM single dose; MCF7 (breast cancer); read-out: growth inhibition percent (GI%)
[2] = system: SNB-75; conditions: for inhibition at 10 µM: Homo sapiens, 10 μM single dose, SNB-75 (CNS cancer), read-out: growth inhibition percent (GI%)
[3] = system: RPMI-8226; conditions: Homo sapiens; 10 μM single dose; RPMI-8226 (leukaemia); read-out: growth inhibition percent (GI%)
[4] = system: HT29; conditions: Homo sapiens, HT-29; 10 μM single dose; HT29 (colon cancer); read-out: growth inhibition percent (GI%)
[5] = system: MDA-MB-468; conditions: Homo sapiens; 10 μM single dose; MDA-MB-468 (breast cancer); read-out: growth inhibition percent (GI%)
[6] = system: TK-10; conditions: Homo sapiens; 10 μM single dose; TK-10 (renal cancer); read-out: growth inhibition percent (GI%)
[7] = system: OVCAR-3; conditions: Homo sapiens; 10 μM single dose; OVCAR-3 (ovarian cancer); read-out: growth inhibition percent (GI%)
[8] = system: UACC-257; conditions: Homo sapiens; 10 μM single dose; UACC-257 (melanoma); read-out: growth inhibition percent (GI%)
[9] = system: CCRF-CEM; conditions: Homo sapiens; 10 μM single dose; CCRF-CEM (leukaemia); read-out: growth inhibition percent (GI%)
[10] = system: SK-MEL-5; conditions: Homo sapiens; 10 μM single dose; SK-MEL-5 (melanoma); read-out: growth inhibition percent (GI%)
[11] = system: SK-OV-3; conditions: Homo sapiens; 10 μM single dose; SK-OV-3 (ovarian cancer); read-out: growth inhibition percent (GI%)
[12] = system: UACC-62; conditions: Homo sapiens; 10 μM single dose; UACC-62 (melanoma); read-out: growth inhibition percent (GI%)
[13] = system: A549/ATCC; conditions: Homo sapiens; 10 μM single dose; A549/ATCC (non-small cell lung cancer); read-out: growth inhibition percent (GI%)
[14] = system: HCC-2998; conditions: Homo sapiens; 10 μM single dose; HCC-2998 (colon cancer); read-out: growth inhibition percent (GI%)
[15] = system: ACHN; conditions: Homo sapiens; 10 μM single dose; ACHN (renal cancer); read-out: growth inhibition percent (GI%)
[16] = system: 786–0; conditions: for inhibition at 10 µM: Homo sapiens, 10 μM single dose, 786–0 (renal cancer), read-out: growth inhibition percent (GI%)
[17] = system: SF-295; conditions: Homo sapiens; 10 μM single dose; SF-295 (CNS cancer); read-out: growth inhibition percent (GI%)
[18] = system: IGROV1; conditions: Homo sapiens, IGROV-1; 10 μM single dose; IGROV1 (ovarian cancer); read-out: growth inhibition percent (GI%)
[19] = system: M14; conditions: Homo sapiens; 10 μM single dose; M14 (melanoma); read-out: growth inhibition percent (GI%)
[20] = system: SN12C; conditions: Homo sapiens; 10 μM single dose; SN12C (renal cancer); read-out: growth inhibition percent (GI%)
[21] = system: SF-268; conditions: Homo sapiens; 10 μM single dose; SF-268 (CNS cancer); read-out: growth inhibition percent (GI%)
[22] = system: HL-60(TB); conditions: Homo sapiens; 10 μM single dose; HL-60(TB) (leukaemia); read-out: growth inhibition percent (GI%)
[23] = system: CAKI-1; conditions: Homo sapiens; 10 μM single dose; CAKI-1 (renal cancer); read-out: growth inhibition percent (GI%)
[24] = system: KM12; conditions: Homo sapiens; 10 μM single dose; KM12 (colon cancer); read-out: growth inhibition percent (GI%)
[25] = system: PC-3; conditions: Homo sapiens; 10 μM single dose; PC-3 (prostate cancer); read-out: growth inhibition percent (GI%)
[26] = system: SNB-19; conditions: Homo sapiens; 10 μM single dose; SNB-19 (CNS cancer); read-out: growth inhibition percent (GI%)
[27] = system: NCI-H522; conditions: Homo sapiens; 10 μM single dose; NCI-H522 (non-small cell lung cancer); read-out: growth inhibition percent (GI%)
[28] = system: RXF 393; conditions: for inhibition at 10 µM: Homo sapiens, 10 μM single dose, RXF 393 (renal cancer), read-out: growth inhibition percent (GI%)
[29] = system: DU-145; conditions: Homo sapiens, DU-145; read-out: growth inhibition percent (GI%)
[30] = system: HCT-15; conditions: Homo sapiens; 10 μM single dose; HCT-15 (colon cancer); read-out: growth inhibition percent (GI%)
[31] = system: MOLT-4; conditions: Homo sapiens; 10 μM single dose; MOLT-4 (leukaemia); read-out: growth inhibition percent (GI%)
[32] = system: UO-31; conditions: Homo sapiens; 10 μM single dose; UO-31 (renal cancer); read-out: growth inhibition percent (GI%)
[33] = system: SK-MEL-2; conditions: Homo sapiens; 10 μM single dose; SK-MEL-2 (melanoma); read-out: growth inhibition percent (GI%)
[34] = system: OVCAR-8; conditions: Homo sapiens; 10 μM single dose; OVCAR-8 (ovarian cancer); read-out: growth inhibition percent (GI%)
[35] = system: OVCAR-5; conditions: Homo sapiens; 10 μM single dose; OVCAR-5 (ovarian cancer); read-out: growth inhibition percent (GI%)
[36] = system: NCI-H226; conditions: for inhibition at 10 µM: Homo sapiens, 10 μM single dose, NCI-H226 (non-small cell lung cancer), read-out: growth inhibition percent (GI%)
[37] = system: NCI-H23; conditions: Homo sapiens; 10 μM single dose; NCI-H23 (non-small cell lung cancer); read-out: growth inhibition percent (GI%)
[38] = system: BT-549; conditions: Homo sapiens; 10 μM single dose; BT-549 (breast cancer); read-out: growth inhibition percent (GI%)
[39] = system: HOP-92; conditions: Homo sapiens; 10 μM single dose; HOP-92 (non-small cell lung cancer); read-out: growth inhibition percent (GI%)

With `N#Cc1c(-c2ccc(F)cc2)nc(SCc2ccc([N+](=O)[O-])cc2)nc1N1CCNCC1` [4g, 4-(4-Fluorophenyl)-2-((4-nitrobenzyl)thio)-6-(piperazin-1-yl) pyrimidine-5-carbonitrile] the inhibition at 10 µM [1] was < 10%, the inhibition at 10 µM [2] was 15.9% and the inhibition at 10 µM [3] was < 10%. For the same molecule, the inhibition at 10 µM [4] was < 10%, the inhibition at 10 µM [5] was < 10% and the inhibition at 10 µM [6] was < 10%. For the same molecule, the inhibition at 10 µM [7] was < 10%, the inhibition at 10 µM [8] was < 10% and the inhibition at 10 µM [9] was < 10%. The inhibition at 10 µM [10] was < 10%, the inhibition at 10 µM [11] was < 10% and the inhibition at 10 µM [12] was < 10%. For the same molecule, the inhibition at 10 µM [13] was < 10%, the inhibition at 10 µM [14] was < 10% and the inhibition at 10 µM [15] was < 10%. For the same molecule, the inhibition at 10 µM [16] was < 10%, the inhibition at 10 µM [17] was < 10% and the inhibition at 10 µM [18] was < 10%. The inhibition at 10 µM [19] was < 10%, the inhibition at 10 µM [20] was < 10% and the inhibition at 10 µM [21] was < 10%. For the same molecule, the inhibition at 10 µM [22] was < 10%, the inhibition at 10 µM [23] was 11% and the inhibition at 10 µM [24] was < 10%. The inhibition at 10 µM [25] was < 10%, the inhibition at 10 µM [26] was < 10% and the inhibition at 10 µM [27] was < 10%. For the same molecule, the inhibition at 10 µM [28] was 15.2%, the inhibition at 10 µM [29] was < 10% and the inhibition at 10 µM [30] was < 10%. For the same molecule, the inhibition at 10 µM [31] was < 10%, the inhibition at 10 µM [32] was 11.9% and the inhibition at 10 µM [33] was < 10%. The inhibition at 10 µM [34] was < 10%, the inhibition at 10 µM [35] was < 10% and the inhibition at 10 µM [36] was < 10%. The inhibition at 10 µM [37] was < 10%, the inhibition at 10 µM [38] was < 10% and the inhibition at 10 µM [39] was < 10%.

For `Cc1ccc(CSc2nc(-c3ccc(F)cc3)c(C#N)c(N3CCNCC3)n2)cc1` [4h, 4-(4-Fluorophenyl)-2-((4-methylbenzyl)thio)-6-(piperazin-1-yl)pyrimidine-5-carbonitrile], the inhibition at 10 µM [1] was < 10%, the inhibition at 10 µM [2] was 19.5% and the inhibition at 10 µM [3] was < 10%. The inhibition at 10 µM [4] was < 10%, the inhibition at 10 µM [5] was < 10% and the inhibition at 10 µM [6] was < 10%. For the same molecule, the inhibition at 10 µM [7] was < 10%, the inhibition at 10 µM [8] was < 10% and the inhibition at 10 µM [9] was < 10%. The inhibition at 10 µM [10] was < 10%, the inhibition at 10 µM [11] was < 10% and the inhibition at 10 µM [12] was < 10%. The inhibition at 10 µM [13] was < 10%, the inhibition at 10 µM [14] was < 10% and the inhibition at 10 µM [15] was < 10%. The inhibition at 10 µM [16] was < 10%, the inhibition at 10 µM [17] was < 10% and the inhibition at 10 µM [18] was < 10%. The inhibition at 10 µM [19] was < 10%, the inhibition at 10 µM [20] was < 10% and the inhibition at 10 µM [21] was < 10%. The inhibition at 10 µM [22] was < 10%, the inhibition at 10 µM [23] was 11.7% and the inhibition at 10 µM [24] was < 10%. The inhibition at 10 µM [25] was < 10%, the inhibition at 10 µM [26] was < 10% and the inhibition at 10 µM [27] was < 10%. The inhibition at 10 µM [28] was < 10%, the inhibition at 10 µM [29] was < 10% and the inhibition at 10 µM [30] was < 10%. For the same molecule, the inhibition at 10 µM [31] was < 10%, the inhibition at 10 µM [32] was 12.1% and the inhibition at 10 µM [33] was < 10%. For the same molecule, the inhibition at 10 µM [34] was < 10%, the inhibition at 10 µM [35] was < 10% and the inhibition at 10 µM [36] was < 10%. For the same molecule, the inhibition at 10 µM [37] was < 10%, the inhibition at 10 µM [38] was < 10% and the inhibition at 10 µM [39] was < 10%.

With `CN1CCN(c2nc(SCc3ccccc3)nc(-c3ccc(F)cc3)c2C#N)CC1` [4i, 2-(Benzylthio)-4-(4-fluorophenyl)-6-(4-methylpiperazin-1-yl) pyrimidine-5-carbonitrile] the inhibition at 10 µM [1] was 30.8%, the GI% ([2]; 10 μM one-dose, Table 1) was “— (GI value > 70%)” and the inhibition at 10 µM [2] was 41%. It also gave an inhibition at 10 µM [3] of 56.4%, an inhibition at 10 µM [4] of 67% and an inhibition at 10 µM [5] of 29.2%. The inhibition at 10 µM [6] was < 10%, the inhibition at 10 µM [7] was 14.4% and the inhibition at 10 µM [8] was 27.8%. The inhibition at 10 µM [9] was 37.9%, the inhibition at 10 µM [10] was 33.6% and the inhibition at 10 µM [11] was < 10%. The inhibition at 10 µM [12] was 19.6%, the inhibition at 10 µM [13] was 38.3% and the inhibition at 10 µM [14] was < 10%. For the same molecule, the inhibition at 10 µM [15] was 14.8%, the GI% ([16]; 10 μM one-dose, Table 1) was “— (GI value > 70%)” and the inhibition at 10 µM [16] was 29.3%. The inhibition at 10 µM [17] was 12.3%, the inhibition at 10 µM [18] was < 10% and the inhibition at 10 µM [19] was 18.1%. It also gave an inhibition at 10 µM [20] of 12.6%, an inhibition at 10 µM [21] of 26.8% and an inhibition at 10 µM [22] of 36.5%. The inhibition at 10 µM [23] was 37.9%, the inhibition at 10 µM [24] was 19.1% and the inhibition at 10 µM [25] was 31.9%. For the same molecule, the inhibition at 10 µM [26] was 10%, the inhibition at 10 µM [27] was 31.7% and the GI% ([28]; 10 μM one-dose, Table 1) was “— (GI value > 70%)”. The inhibition at 10 µM [28] was 49.7%, the inhibition at 10 µM [29] was < 10% and the inhibition at 10 µM [30] was 46.8%. For the same molecule, the inhibition at 10 µM [31] was 49.8%, the inhibition at 10 µM [32] was 36% and the inhibition at 10 µM [33] was < 10%. The inhibition at 10 µM [34] was 14.1%, the inhibition at 10 µM [35] was < 10% and the GI% ([36]; 10 μM one-dose, Table 1) was “— (GI value > 70%)”. For the same molecule, the inhibition at 10 µM [36] was < 10%, the inhibition at 10 µM [37] was < 10% and the inhibition at 10 µM [38] was < 10%. The inhibition at 10 µM [39] was 22.7%.
